Results published in EP3283473B1, “GHRELIN O-ACYL TRANSFERASE INHIBITORS” (Eli Lilly and Company, priority 2015, dated 2016).

Molecular target: T1, GOAT enzyme (Mus musculus, UniProt P0C7A3)
T1 construct: from tissue; host or cells: living male C57BL/6 mice (endogenous enzyme)
T1 sequence (P0C7A3 1-435): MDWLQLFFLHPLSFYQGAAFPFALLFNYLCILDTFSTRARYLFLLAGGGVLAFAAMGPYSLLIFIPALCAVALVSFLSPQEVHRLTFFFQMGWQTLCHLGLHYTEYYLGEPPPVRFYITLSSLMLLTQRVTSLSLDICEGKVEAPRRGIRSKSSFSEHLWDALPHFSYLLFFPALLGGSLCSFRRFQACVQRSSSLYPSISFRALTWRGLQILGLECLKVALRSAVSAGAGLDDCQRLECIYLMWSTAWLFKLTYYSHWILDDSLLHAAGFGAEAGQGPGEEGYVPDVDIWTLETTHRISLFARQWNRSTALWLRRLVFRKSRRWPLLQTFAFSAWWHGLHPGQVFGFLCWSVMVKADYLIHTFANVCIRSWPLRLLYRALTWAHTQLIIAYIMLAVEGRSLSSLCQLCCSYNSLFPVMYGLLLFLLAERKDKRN
Assay: In vivo dose dependent 3 day BID study for GOAT inhibitor (plasma AG and UAG by ELISA)
Parameters: species or system male C57BL/6 mice
Conditions: for decreases plasma AG / increases UAG: administration for 3 days; for decreases plasma AG / increases UAG / AG (% of control) / AG/total-ghrelin (% of vehicle control) / UAG (% of vehicle control): mice; for reduction in AG to total ghrelin ratio: compared to vehicle-treated control animals; for AG (% of control) / AG/total-ghrelin (% of vehicle control) / UAG (% of vehicle control): oral gavage BID, 3 days, plasma
Procedure: Comparing the change in the ratio of AG to total ghrelin in the compound treated group and that of the vehicle treated group reflects the degree of GOAT enzyme inhibition in vivo, due to the dynamic processing of UAG to AG by the GOAT enzyme. In the in vivo pharmacodynamic studies herein, the levels of AG and UAG in plasma and stomach in the vehicle and compound treated groups are measured by ELISA specifically to these two analytes. The total ghrelin level of each sample is computed as the sum of AG and UAG by these ELISA measurements. The ratio of AG to total ghrelin is defined by the level of AG in each sample divided by the level of total ghrelin in the same sample. The levels of AG, UAG and ratio of AG to total ghrelin in the vehicle treated group is computed and set as 100%. The relative change of these parameters in the compound treated group is then computed to determine the effectiveness of the test compound.
Purchase male C57BL/6 mice from Harlan (Indianapolis, IN) at 9 weeks of age. House the mice individually in a temperature-controlled (24 °C) facility with a 12 hours light/dark cycle (lights on 2200 h), and allow free access to a standard rodent chow (diet 2014, Harlan) and water. Typically, use the mice when they are 10-13 weeks of age at the time of the study. On day 0 of the experiment, randomize the mice into treatment groups (N=7/group) so each group has similar mean body weights. On day 1 and day 2, treat the animals with vehicle (1% hydroxyethylcellulose, 0.25% TWEEN™ 80, 0.05% antifoam) or test compound prepared in the vehicle as suspension at various dosages by oral gavage at 7 am and 7 pm. On day 3, fast the animals, move them into clean cages and dose with vehicle or the test compound again at 8 am by oral gavage. That same day at 1 pm, sacrifice the animals by decapitation to collect blood. For details of blood collection and plasma treatments see Blood collection and Extraction of Ghrelin from Plasma section below.
Collect approximately 600 µL blood into a pre-weighed EDTA tube containing 600 µL (defined as Vpreservative) freshly-prepared preservative (4 mM PEFABLOC® [4-(2-aminoethyl) benzenesulfonyl fluoride hydrochloride], 72 mM NaCl, 58 mM NaF, 0.032 N hydrochloric acid, pH 3.0) and mix immediately. Weigh the tube again and keep on ice. To accurately determine the exact blood volume of each sample using this blood collection procedure, the weight of the blood for each mouse is computed using the following equation: Weight of Blood = (Weight of the tube containing Blood + preservative)−; (Weight of the tube containing preservative) [formula] Blood volume(Vblood) = (Weight of blood)/1.06 [formula]
Within 15 minutes after the blood collection, samples are centrifuged at 5000 rpm at 4 °C for 8 min. Remove plasma (650 µL) to a 5 mL glass tube containing 1 N hydrochloric acid (65µL), mix and keep on ice.
AG and UAG are extracted from plasma using SEP-PAK®_C18 column to remove interference prior to performing the ELISA. The solid phase extraction of AG and UAG peptides by SEP-PAK®_C18 columns can be performed on a vacuum manifold (Waters Corp) or using a peristaltic pump. The sample SEP-PAK®_column extraction procedure is independently applied to the plasma sample obtained from each individual mouse. The general extraction protocol is described as follows.
All solutions used for the entire protocol of the SEP-PAK® column extraction should be at ice cold condition. Wet SEP-PAK®_columns (WAT054960, Waters Corp, Milford MA) with 99.9% ACN/0.1% TFA (1 mL of solution of 100 mL ACN/0.1 mL TFA). […] Once liquid is removed from the column, stop the pressure. Equilibrate the columns with 3% ACN/0.1% TFA (1 mL of 97 mL water, 3 mL ACN, 0.1 mL TFA). […] Dilute approximately 650 µL acidified plasma (defined as Vplasma added to column) to 1.4 mL ice cold 0.1% TFA. Load all diluted acidified plasma from the previous step onto the columns. […]

decreases plasma AG (0.1 mg/kg): 40%
increases UAG (0.1 mg/kg): 2.10 fold
reduction in AG to total ghrelin ratio (0.1 mg/kg): 57%
AG (% of control) (0.1 mg/kg): 60 ± 8 (n=7) % of control
AG/total-ghrelin (% of vehicle control) (0.1 mg/kg): 43 ± 3 (n=7) % of vehicle control
UAG (% of vehicle control) (0.1 mg/kg): 210 ± 43 (n=7) % of vehicle control
decreases plasma AG (0.3 mg/kg): 60%
increases UAG (0.3 mg/kg): 2.22 fold
reduction in AG to total ghrelin ratio (0.3 mg/kg): 62%
AG (% of control) (0.3 mg/kg): 40 ± 10 (n=7) % of control
AG/total-ghrelin (% of vehicle control) (0.3 mg/kg): 28 ± 1 (n=7) % of vehicle control
UAG (% of vehicle control) (0.3 mg/kg): 222 ± 54 (n=7) % of vehicle control
decreases plasma AG (1 mg/kg): 56%
increases UAG (1 mg/kg): 3.57 fold
reduction in AG to total ghrelin ratio (1 mg/kg): 79%
AG (% of control) (1 mg/kg): 44 ± 6 (n=14) % of control
AG/total-ghrelin (% of vehicle control) (1 mg/kg): 21 ± 1 (n=14) % of vehicle control
UAG (% of vehicle control) (1 mg/kg): 357 ± 30 (n=14) % of vehicle control
decreases plasma AG (3 mg/kg): 63%
increases UAG (3 mg/kg): 3.49 fold
reduction in AG to total ghrelin ratio (3 mg/kg): 82%
AG (% of control) (3 mg/kg): 37 ± 9.6 (n=14) % of control
AG/total-ghrelin (% of vehicle control) (3 mg/kg): 18 ± 5 (n=14) % of vehicle control
UAG (% of vehicle control) (3 mg/kg): 349 ± 41 (n=14) % of vehicle control
decreases plasma AG (10 mg/kg): 63%
increases UAG (10 mg/kg): 3.78 fold
reduction in AG to total ghrelin ratio (10 mg/kg): 82%
AG (% of control) (10 mg/kg): 37 ± 9.9 (n=7) % of control
AG/total-ghrelin (% of vehicle control) (10 mg/kg): 18 ± 3 (n=7) % of vehicle control
UAG (% of vehicle control) (10 mg/kg): 378 ± 59 (n=7) % of vehicle control
SMILES: Cc1nc(C(F)(F)F)nc(N)c1CCC1CCN(C(=O)[C@H](C)NC(=O)c2ccnn2C)CC1 [Example 2, N-[(1S)-2-[4-[2-[4-Amino-6-methyl-2-(trifluoromethyl)pyrimidin-5-yl]ethyl]-1-piperidyl]-1-methyl-2-oxo-ethyl]-2-methyl-pyrazole-3-carboxamide]
